Source: ChEMBL document CHEMBL1138708, “Synthesis of analogs of (1,4)-3- and 5-imino oxazepane, thiazepane, and diazepane as inhibitors of nitric oxide synthases” (Bioorg Med Chem Lett, 2004)

How the values were obtained:
[1] = target: Nitric oxide synthase, inducible (Homo sapiens, UniProt P35228); experiment: Inhibitory concentration against Inducible nitric oxide synthase
[2] = target: Nitric oxide synthase (inducible and endothelial) (Homo sapiens) (UniProt P35228+P29474); experiment: Ratio of inhibitory concentration against Endothelial nitric oxide synthase to Inducible nitric oxide synthase; format: protein assay
[3] = target: Nitric oxide synthase 1 (Homo sapiens, UniProt P29475); experiment: Inhibitory concentration against Neuronal nitric oxide synthase
Nitric oxide synthase 1, sequence (P29475 whole entry): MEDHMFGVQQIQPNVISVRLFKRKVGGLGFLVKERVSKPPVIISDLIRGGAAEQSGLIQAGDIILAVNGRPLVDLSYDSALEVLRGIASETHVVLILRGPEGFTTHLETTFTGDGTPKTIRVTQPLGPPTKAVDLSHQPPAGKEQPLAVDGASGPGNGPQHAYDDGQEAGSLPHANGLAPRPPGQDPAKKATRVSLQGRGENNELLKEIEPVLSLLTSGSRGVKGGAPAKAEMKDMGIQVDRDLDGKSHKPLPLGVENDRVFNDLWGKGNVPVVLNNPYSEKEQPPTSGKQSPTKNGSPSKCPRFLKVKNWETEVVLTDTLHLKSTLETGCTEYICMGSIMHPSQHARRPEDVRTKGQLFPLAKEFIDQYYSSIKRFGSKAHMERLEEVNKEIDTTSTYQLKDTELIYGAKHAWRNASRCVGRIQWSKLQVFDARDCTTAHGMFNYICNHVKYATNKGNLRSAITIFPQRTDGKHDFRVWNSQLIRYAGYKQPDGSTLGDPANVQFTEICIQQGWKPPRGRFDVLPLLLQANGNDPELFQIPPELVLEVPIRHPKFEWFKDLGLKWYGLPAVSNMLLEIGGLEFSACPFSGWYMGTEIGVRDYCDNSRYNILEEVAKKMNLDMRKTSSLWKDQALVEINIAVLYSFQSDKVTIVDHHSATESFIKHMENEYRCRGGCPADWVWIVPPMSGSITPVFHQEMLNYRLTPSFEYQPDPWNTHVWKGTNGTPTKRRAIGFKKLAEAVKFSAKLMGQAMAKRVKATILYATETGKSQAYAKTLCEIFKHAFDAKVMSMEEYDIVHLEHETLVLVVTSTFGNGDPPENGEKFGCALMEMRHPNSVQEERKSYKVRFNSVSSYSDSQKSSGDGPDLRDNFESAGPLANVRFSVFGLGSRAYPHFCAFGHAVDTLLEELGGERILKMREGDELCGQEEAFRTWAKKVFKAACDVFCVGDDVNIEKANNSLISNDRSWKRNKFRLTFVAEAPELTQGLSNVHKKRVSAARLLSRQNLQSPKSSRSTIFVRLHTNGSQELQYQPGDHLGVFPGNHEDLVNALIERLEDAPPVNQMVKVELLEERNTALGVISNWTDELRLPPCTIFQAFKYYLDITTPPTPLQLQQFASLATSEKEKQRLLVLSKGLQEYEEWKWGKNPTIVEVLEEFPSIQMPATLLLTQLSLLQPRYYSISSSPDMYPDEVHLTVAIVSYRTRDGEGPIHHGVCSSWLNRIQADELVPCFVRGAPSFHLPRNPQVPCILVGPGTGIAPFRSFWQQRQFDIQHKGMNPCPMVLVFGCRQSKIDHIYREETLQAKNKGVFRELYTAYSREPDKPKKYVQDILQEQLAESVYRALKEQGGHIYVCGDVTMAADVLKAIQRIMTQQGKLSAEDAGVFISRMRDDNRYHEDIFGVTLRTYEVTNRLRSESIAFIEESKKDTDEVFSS

[4] = target: T1, Nitric oxide synthase 3 (Homo sapiens, UniProt P29474); experiment: Inhibitory concentration against Endothelial nitric oxide synthase
T1 sequence (P29474 whole entry): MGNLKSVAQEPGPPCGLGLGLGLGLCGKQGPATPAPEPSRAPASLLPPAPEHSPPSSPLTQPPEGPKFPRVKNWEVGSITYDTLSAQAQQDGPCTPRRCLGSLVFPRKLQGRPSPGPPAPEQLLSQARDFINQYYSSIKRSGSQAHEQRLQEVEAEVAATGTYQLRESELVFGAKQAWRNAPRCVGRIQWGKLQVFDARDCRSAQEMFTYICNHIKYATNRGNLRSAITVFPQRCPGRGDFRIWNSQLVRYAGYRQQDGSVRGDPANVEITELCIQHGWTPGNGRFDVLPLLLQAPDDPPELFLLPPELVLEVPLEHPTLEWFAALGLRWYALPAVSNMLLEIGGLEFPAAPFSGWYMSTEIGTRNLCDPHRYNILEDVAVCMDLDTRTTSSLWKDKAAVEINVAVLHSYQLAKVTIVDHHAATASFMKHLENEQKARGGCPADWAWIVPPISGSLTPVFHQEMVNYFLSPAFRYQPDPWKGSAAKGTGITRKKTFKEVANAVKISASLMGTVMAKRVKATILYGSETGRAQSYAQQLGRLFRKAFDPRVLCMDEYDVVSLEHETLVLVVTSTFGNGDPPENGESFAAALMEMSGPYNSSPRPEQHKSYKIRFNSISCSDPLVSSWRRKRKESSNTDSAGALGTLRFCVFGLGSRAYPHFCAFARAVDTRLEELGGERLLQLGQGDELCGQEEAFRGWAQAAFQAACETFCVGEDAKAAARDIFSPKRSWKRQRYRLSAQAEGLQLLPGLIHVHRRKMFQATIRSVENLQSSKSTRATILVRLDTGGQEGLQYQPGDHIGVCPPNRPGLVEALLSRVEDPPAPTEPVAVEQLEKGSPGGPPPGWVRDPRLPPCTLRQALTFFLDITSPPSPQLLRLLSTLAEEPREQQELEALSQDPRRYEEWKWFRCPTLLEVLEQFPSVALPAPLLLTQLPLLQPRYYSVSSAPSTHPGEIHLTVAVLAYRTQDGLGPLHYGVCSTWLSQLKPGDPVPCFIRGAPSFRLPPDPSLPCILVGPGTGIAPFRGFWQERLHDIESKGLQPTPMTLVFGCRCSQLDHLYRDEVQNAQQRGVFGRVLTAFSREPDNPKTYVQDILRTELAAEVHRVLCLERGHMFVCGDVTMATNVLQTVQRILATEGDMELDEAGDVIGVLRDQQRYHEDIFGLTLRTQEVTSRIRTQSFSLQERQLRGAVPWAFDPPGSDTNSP

Nitric oxide synthase, inducible, sequence (P35228 whole entry): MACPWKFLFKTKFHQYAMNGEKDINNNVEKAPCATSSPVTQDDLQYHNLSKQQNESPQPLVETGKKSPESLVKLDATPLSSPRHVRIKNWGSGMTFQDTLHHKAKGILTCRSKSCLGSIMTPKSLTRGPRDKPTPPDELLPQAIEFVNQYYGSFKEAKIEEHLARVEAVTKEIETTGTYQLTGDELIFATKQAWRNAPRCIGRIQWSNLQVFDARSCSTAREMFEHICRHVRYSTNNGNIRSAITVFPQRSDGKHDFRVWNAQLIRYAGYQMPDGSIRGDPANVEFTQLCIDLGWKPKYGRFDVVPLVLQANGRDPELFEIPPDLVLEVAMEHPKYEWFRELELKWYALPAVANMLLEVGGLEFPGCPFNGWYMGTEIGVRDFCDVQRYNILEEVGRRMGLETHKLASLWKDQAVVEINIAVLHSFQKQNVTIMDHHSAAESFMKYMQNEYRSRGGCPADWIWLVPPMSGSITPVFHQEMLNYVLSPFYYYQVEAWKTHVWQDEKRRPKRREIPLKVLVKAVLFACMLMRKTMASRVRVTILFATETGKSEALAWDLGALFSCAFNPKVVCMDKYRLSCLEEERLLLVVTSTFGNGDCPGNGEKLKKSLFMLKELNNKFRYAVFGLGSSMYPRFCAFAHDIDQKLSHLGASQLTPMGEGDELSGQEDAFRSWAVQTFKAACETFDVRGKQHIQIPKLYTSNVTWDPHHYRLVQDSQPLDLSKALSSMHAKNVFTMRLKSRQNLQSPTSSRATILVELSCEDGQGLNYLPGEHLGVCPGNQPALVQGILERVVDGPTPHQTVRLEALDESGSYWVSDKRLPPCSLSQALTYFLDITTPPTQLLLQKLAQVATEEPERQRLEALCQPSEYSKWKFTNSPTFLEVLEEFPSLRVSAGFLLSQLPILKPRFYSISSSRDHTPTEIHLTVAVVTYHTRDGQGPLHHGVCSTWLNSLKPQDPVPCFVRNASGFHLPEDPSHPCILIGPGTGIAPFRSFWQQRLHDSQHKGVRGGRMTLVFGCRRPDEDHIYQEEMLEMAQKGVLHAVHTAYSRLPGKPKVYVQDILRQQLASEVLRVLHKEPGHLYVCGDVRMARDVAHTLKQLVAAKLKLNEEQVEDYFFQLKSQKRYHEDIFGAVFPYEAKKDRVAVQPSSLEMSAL

Question: How did the IC50 [1] turn out when `CC1CSCCC(N)=N1` (stereo not drawn) was run?
Answer: 810 nM

Question: And the Selectivity [2]?
Answer: 6.1

Question: What about the IC50 [3] of the same molecule?
Answer: 1800 nM

Question: And the IC50 [4]?
Answer: 5 µM

Question: Which IC50 [1] does the source give for `CC(C)CC1CSCCC(N)=N1` (stereo not drawn) here?
Answer: 320 nM

Question: What about the Selectivity [2] of the same molecule?
Answer: 186

Question: And the IC50 [3]?
Answer: 1900 nM

Question: And the IC50 [4]?
Answer: 60 µM

Question: `CC1CC(N)=NCCS1` (stereo not drawn) was tested. Which IC50 [1] did it give?
Answer: 3000 nM

Question: What about the Selectivity [2] of the same molecule?
Answer: 1.6

Question: What about the IC50 [3] of the same molecule?
Answer: 1000 nM

Question: What about the IC50 [4] of the same molecule?
Answer: 5 µM

Question: How did the Selectivity [2] turn out when `CC(=N)NCCCC[C@H](N)C(=O)O` was run?
Answer: 3.7

Question: For `NC1=NCCCOC1`, which IC50 [4] is on record?
Answer: 0.45 µM

Question: What does the source list for `CCC1CSCCC(N)=N1` (stereo not drawn)?
Answer: IC50 [1]: 310 nM; Selectivity [2]: 3.7; IC50 [3]: 590 nM; IC50 [4]: 1.1 µM

Question: What does the source list for `CC1CN=C(N)CCS1` (stereo not drawn)?
Answer: IC50 [1]: 3500 nM; Selectivity [2]: 1.1; IC50 [3]: 830 nM; IC50 [4]: 4.1 µM

Question: With `CC1CC(N)=NC2CCCCC2S1` (stereo not drawn) as the molecule, how does the IC50 [1] read?
Answer: > 50000 nM

Question: What about the IC50 [3] of the same molecule?
Answer: > 50000 nM

Question: What about the IC50 [4] of the same molecule?
Answer: > 50 µM

Question: With `NC1=NCCSCC1` as the molecule, how does the IC50 [1] read?
Answer: 1400 nM

Question: And the Selectivity [2]?
Answer: 9.5

Question: And the IC50 [3]?
Answer: 4300 nM

Question: And the IC50 [4]?
Answer: 13.4 µM

Question: How did the IC50 [1] turn out when `NC1=NC(CO)CSCC1` (stereo not drawn) was run?
Answer: 1100 nM

Question: What about the Selectivity [2] of the same molecule?
Answer: 5.3

Question: What about the IC50 [3] of the same molecule?
Answer: 2700 nM

Question: And the IC50 [4]?
Answer: 6 µM

Question: For `CC1CSCCN=C1N` (stereo not drawn), which IC50 [1] is on record?
Answer: > 50000 nM

Question: What about the IC50 [3] of the same molecule?
Answer: > 50000 nM

Question: And the IC50 [4]?
Answer: > 50 µM

Question: Which IC50 [1] does the source give for `NC1=NCCCSC1` here?
Answer: 1200 nM

Question: What about the Selectivity [2] of the same molecule?
Answer: 8.8

Question: What about the IC50 [3] of the same molecule?
Answer: 2800 nM

Question: And the IC50 [4]?
Answer: 10.5 µM

Question: With `CCC[C@@H]1CSCCC(N)=N1` as the molecule, how does the Selectivity [2] read?
Answer: 42

Question: Which IC50 [1] does the source give for `CCCC1CSCCC(N)=N1` (stereo not drawn) here?
Answer: 290 nM

Question: What about the Selectivity [2] of the same molecule?
Answer: 172

Question: And the IC50 [3]?
Answer: 2800 nM

Question: And the IC50 [4]?
Answer: 50 µM

Question: What does the source list for `NC1=NCCNCC1`?
Answer: IC50 [1]: > 50000 nM; IC50 [3]: > 50000 nM; IC50 [4]: > 50 µM

Question: What does the source list for `CCC[C@H]1CSCCC(N)=N1`?
Answer: IC50 [1]: 190 nM; Selectivity [2]: 5.2; IC50 [3]: 440 nM; IC50 [4]: 1 µM

Question: `CCC[C@@H]1CSCCC(=N)N1` was tested. Which IC50 [1] did it give?
Answer: 1200 nM

Question: And the IC50 [3]?
Answer: 7100 nM

Question: What about the IC50 [4] of the same molecule?
Answer: 50 µM

Question: What does the source list for `NC1=NCCOCC1`?
Answer: IC50 [1]: 11800 nM; Selectivity [2]: 2.1; IC50 [3]: 8700 nM; IC50 [4]: 25 µM

Question: Which IC50 [1] does the source give for `CCCCC1CSCCC(N)=N1` (stereo not drawn) here?
Answer: 500 nM

Question: What about the Selectivity [2] of the same molecule?
Answer: 164

Question: And the IC50 [3]?
Answer: 1200 nM

Question: And the IC50 [4]?
Answer: 77 µM
